Assay results from US9072712B2, “Synergistic antimicrobial preparations containing chlorite and hydrogen peroxide” (priority 1999, dated 2015).
Entries after “also recorded” stand apart in the source; their conditions may differ.

How the values were obtained:
[1] = system: antibiotic-resistant strain of pseudomonas aeruginosa; assay: In-vitro antimicrobial effect (log reduction); format: cell-based
[2] = system: antibiotic-resistant strain of staphylococcus haemolyticus; assay: In-vitro antimicrobial effect (log reduction); format: cell-based
[3] = system: normal human eyes; conditions: in the presence of sodium chlorite (400 ppm)
Excerpt: Two drops of each formulation were then placed in the cul-de-sac of two normal human eyes. Upon instillation of the drops, the subjects were instructed to close their eyelids.

[4] = system: human eye; conditions: hydrogen peroxide without sodium chlorite (0.01 wt. %); cited from earlier work
[5] = system: S. haemolyticus keratitis in rabbits; assay: In-vivo clinical efficacy in infectious S. haemolyticus keratitis
Method: (§1) After 24 hours, all corneas were likewise infected, and the rabbits were divided randomly into three groups. The rabbits (five) of Group I then were treated with the chlorite-hydrogen peroxide formulation defined above as cleaning while wearing contact lenses (here termed “Bactericide”); the rabbits (five) of Group II were treated with commercially available 0.3% ofloxacin antibiotic ophthalmic solution; and the rabbits (two) of Group III were untreated to serve as a control. At 24 and 48 hours post infection, the rabbits underwent visual eye examination, photographic documentation and biomicroscopy. After 24 hours of treatment, three animals each from Groups I and II and one animal from Group III were sacrificed. The eyes were enucleated and an 8 mm disc of cornea was homogenized and plated onto growth media for microbial isolation and quantification. After 48 hours of treatment, the same procedure was followed for the remaining animals.

[6] = system: S. haemolyticus keratitis in rabbits; assay: In-vivo antimicrobial efficacy in infectious S. haemolyticus keratitis (corneal CFU)
Method: as §1

[7] = 24 hours after infection (before treatment)

sodium chlorite [NaClO2 alone]
Log Reduction ([1]; 400 ppm, 1 hour): 0.351 | Log Reduction ([1]; 400 ppm, 1 hour, listed as sodium chlorite): 0.35 | Log Reduction ([1]; 400 ppm, 2 hours): 1.35 | Log Reduction ([2]; 400 ppm, 1 hour): 0.11 | Log Reduction ([2]; 400 ppm, 2 hours): 1.01

OO [H202 alone, hydrogen peroxide]
Log Reduction ([1]; 200 ppm, 1 hour): 0.01 | Log Reduction ([1]; 200 ppm, 2 hours): 0.54 | hydrogen peroxide levels very well tolerated by human eyes [3]: up to 500 ppm | Log Reduction ([2]; 200 ppm, 1 hour): 0.20 | Log Reduction ([2]; 200 ppm, 2 hours): 0.23 | upper limit of human ocular tolerability [4]: about 100 ppm

CC1COc2c(N3CCN(C)CC3)c(F)cc3c(=O)c(C(=O)O)cn1c23 (stereo not drawn) [0.3% Ofloxacin, ofloxacin]
corneal edema score [5, 7]: corneal edema (+2) | hyperemia score [5, 7]: hyperemia (+2) | inflammation score [5, 7]: inflammation(+2) | corneal edema score ([5]; 24 hours after treatment): corneal edema (+2) | hyperemia score ([5]; 24 hours after treatment): hyperemia (+2) | inflammation score ([5]; 24 hours after treatment): inflammation(+2) | corneal edema score ([5]; 48 hours after treatment): corneal edema (+1) | hyperemia score ([5]; 48 hours after treatment): hyperemia (+1) | inflammation score ([5]; 48 hours after treatment): inflammation(+1) | bacteria isolated from 8 mm disc of cornea, Average ([6]; 24 hours post treatment): 13,000 CFU | bacteria isolated from 8 mm disc of cornea, individual animals ([6]; 24 hours post treatment): iii) 11,000 CFU; also recorded: i) 23,000 CFU; also recorded: ii) 5,000 CFU | bacteria isolated from 8 mm disc of cornea, Average ([6]; 48 hours post treatment): 5,100 CFU | bacteria isolated from 8 mm disc of cornea, individual animals ([6]; 48 hours post treatment): i) 5,000 CFU; also recorded: ii) 5,200 CFU
